Assay results as given in US20190352288A1, “MATRIX METALLOPROTEINASE (MMP) INHIBITORS AND METHODS OF USE THEREOF” (Foresee Pharmaceuticals Co., Ltd., priority 2018, published 2019).
pIC50: −log10 of the molar value.

Tests used:
Format in all cases: biochemical
recombinant human MMP-8 = recombinant human MMP-8 (Homo sapiens, UniProt P22894); assay: MMP selectivity assay, MMP-8; details: Table 2 selectivity profile
Description: (§1) The inhibitory effect of compounds on the rate of cleaving fluorogenic MMP substrate (Enzo, BML-P128) by recombinant human MMP-12 catalytic domain (Enzo, BML-SE138) was carried out by methods known in the art. Briefly, to each well of a 96-well black opaque plate, all the reagents were sequentially added by pipetting, and the final reaction contained 4 nM of recombinant human MMP-12 catalytic domain, 4 μM of fluorogenic MMP substrate, and various concentrations (0.15 nM to 10,000 nM) of tested compound dilutions in HEPES buffer (pH 7.5) containing 10 mM of CaCl2), 0.01% Brij® 35 (polyoxyethylene (23) lauryl ether), and 0.1 mg/ml of BSA.
(§2) The enzyme and compounds were pre-incubated on a shaker to mix in wells. After an hour of mixing, fluorogenic substrate was added to each well. Reaction without enzyme was used as a blank control in the plate. The plate was then fed into a plate reader to measure fluorescence intensity at Excitation/Emission wavelengths of 340 nm/440 nm every 10 mins for at least 1 hour at 37° C. The IC50 of each compound in MMP-12 inhibition was determined by using a readout obtained at time point 30 minutes.
(§3) The MMP selectivity assay was performed by using other recombinant human MMPs, including MMP-1, MMP-2, MMP-3, MMP-7, MMP-8, MMP-9, MMP-10, MMP-13, and MMP-14. The IC50 of the compounds for the other recombinant human MMPs was determined as described above in Example 1, and are shown in Table 2.

recombinant human MMP-9 = recombinant human MMP-9 (Homo sapiens, UniProt P14780); assay: MMP selectivity assay, MMP-9; details: Table 2 selectivity profile
recombinant human MMP-9, sequence (P14780 94-707): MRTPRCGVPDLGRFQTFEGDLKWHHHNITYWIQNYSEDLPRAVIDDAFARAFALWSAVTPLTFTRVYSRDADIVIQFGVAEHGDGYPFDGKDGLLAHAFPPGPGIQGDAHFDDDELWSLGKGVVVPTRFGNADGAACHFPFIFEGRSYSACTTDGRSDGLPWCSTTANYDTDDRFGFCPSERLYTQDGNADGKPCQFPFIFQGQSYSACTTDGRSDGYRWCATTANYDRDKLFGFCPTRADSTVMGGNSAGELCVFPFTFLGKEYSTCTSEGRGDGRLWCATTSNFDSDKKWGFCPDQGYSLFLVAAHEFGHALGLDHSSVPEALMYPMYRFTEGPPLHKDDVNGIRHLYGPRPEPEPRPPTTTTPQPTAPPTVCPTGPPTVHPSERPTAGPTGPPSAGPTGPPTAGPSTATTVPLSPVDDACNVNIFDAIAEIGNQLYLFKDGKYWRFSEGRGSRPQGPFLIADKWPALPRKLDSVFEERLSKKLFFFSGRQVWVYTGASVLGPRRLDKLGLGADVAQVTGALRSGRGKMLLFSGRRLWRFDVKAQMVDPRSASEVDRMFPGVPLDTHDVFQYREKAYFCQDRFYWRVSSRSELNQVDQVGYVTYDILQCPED
Description: as §1, §2, §3

recombinant human MMP-7 = biological target: T1, recombinant human MMP-7 (Homo sapiens, UniProt P09237); assay: MMP selectivity assay, MMP-7; details: Table 2 selectivity profile
T1 sequence (P09237 95-267): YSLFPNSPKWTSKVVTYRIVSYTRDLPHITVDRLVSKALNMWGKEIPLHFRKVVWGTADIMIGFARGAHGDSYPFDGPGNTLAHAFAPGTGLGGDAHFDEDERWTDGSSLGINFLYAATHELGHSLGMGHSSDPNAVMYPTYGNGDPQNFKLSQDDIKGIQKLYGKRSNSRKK
Description: as §1, §2, §3

recombinant human MMP-1 = biological target: T2, recombinant human MMP-1 (Homo sapiens, UniProt P03956); assay: MMP selectivity assay, MMP-1; details: Table 2 selectivity profile
T2 sequence (P03956 100-469): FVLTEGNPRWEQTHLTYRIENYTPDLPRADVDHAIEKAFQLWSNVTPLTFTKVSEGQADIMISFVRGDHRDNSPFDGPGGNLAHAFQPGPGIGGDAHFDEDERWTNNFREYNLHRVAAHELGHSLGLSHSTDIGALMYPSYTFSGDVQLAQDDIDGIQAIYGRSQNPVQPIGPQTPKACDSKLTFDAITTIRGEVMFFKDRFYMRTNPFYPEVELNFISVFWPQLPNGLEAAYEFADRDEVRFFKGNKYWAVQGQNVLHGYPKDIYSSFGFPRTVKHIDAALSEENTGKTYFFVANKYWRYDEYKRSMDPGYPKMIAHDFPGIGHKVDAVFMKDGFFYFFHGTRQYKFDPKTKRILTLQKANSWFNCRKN
Description: as §1, §2, §3

[1] = biological target: T3, recombinant human MMP-12 catalytic domain (Homo sapiens, UniProt P39900); assay: MMP-12 inhibitory assay (fluorogenic substrate cleavage); details: readout at 30 minutes, 37° C., Table 1
T3 construct: recombinant human MMP-12 catalytic domain; purchased Enzo BML-SE138
T3 sequence (P39900 106-268 limits assumed): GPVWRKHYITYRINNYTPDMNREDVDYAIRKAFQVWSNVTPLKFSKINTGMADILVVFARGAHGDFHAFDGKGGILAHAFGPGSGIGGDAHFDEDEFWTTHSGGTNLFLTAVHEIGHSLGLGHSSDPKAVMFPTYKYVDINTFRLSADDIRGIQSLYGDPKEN
Description: as §1, §2

recombinant human MMP-14 = recombinant human MMP-14 (Homo sapiens, UniProt P50281); assay: MMP selectivity assay, MMP-14; details: Table 2 selectivity profile
Description: as §1, §2, §3

recombinant human MMP-8, sequence (P22894 101-467): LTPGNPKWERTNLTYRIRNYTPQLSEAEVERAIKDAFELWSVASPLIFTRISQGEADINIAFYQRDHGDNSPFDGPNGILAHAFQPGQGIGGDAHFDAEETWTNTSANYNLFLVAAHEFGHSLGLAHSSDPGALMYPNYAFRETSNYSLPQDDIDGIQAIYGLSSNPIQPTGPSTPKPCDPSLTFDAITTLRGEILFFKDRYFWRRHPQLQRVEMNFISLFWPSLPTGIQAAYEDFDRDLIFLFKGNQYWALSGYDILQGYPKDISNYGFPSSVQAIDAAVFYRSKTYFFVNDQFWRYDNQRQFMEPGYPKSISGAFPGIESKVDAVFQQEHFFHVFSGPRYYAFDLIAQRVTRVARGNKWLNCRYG

pIC50 (recombinant human MMP-8): 5.00 to 6.00
pIC50 (recombinant human MMP-9): 5.00 to 6.00
pIC50 (recombinant human MMP-7): < 5.00
pIC50 (recombinant human MMP-1): < 5.00
pIC50 [1]: > 8.00
pIC50 (recombinant human MMP-14): 5.00 to 6.00
Structure (SMILES): Cc1cc(COc2ccc(Sc3ccncc3C3NC(=O)NC3=O)cc2)ccn1 (stereo not drawn) [PC-16]
